The results in this text go back to PMC6713218, “Hyaluronic acid-functionalized bilosomes for targeted delivery of tripterine to inflamed area with enhancive therapy on arthritis” (Drug Delivery, 2019).

One series has as its system RAW264.7 cells. As to the kind of experiment: Cellular uptake test (intracellular Tri by HPLC). In kind it is cell-based, murine. As to conditions: for Reduction in cellular uptake of HA@Tri-BLs: inhibitor or competitor added: free HA 25 μM, HUTCH-1 10 μg/mL, hypertonic sucrose 400 mM, chlorpromazine 25 μM, EIPA 50 μM, vs control without inhibitor. The protocol:
The cellular uptake of Tri-loaded bilosomes were investigated in RAW264.7 cells, a murine macrophage line. The cells were cultured in a RPMI-1640 medium containing 10% FBS (Gibco, CA, USA) at 37 °C in 5% CO2. When the cells grew to 80 ∼ 90% confluence, they were eligible for the cellular uptake test. Tri solution (dissolve in 75% ethanol), Tri-BLs and HA@Tri-BLs were diluted to 10 μg/mL with the culture medium and introduced into the cell wells for coincubation. To elucidate the uptake mechanism of HA@Tri-BLs, the uptake of HA@Tri-BLs was specially measured in the presence of various cytosis inhibitors or competitor, including hypertonic sucrose (400 mM), chlorpromazine (25 μM), simvastatin (5 μM), genistein (200 μM), free HA (25 μM), HUTCH-1 (10 μg/mL), EIPA (50 μM) and Lantraculin A (2.5 μM) (Deng et al., [2017]). The intracellular drug concentration was determined using HPLC by lysing the cells with RIPA lysis buffer and corrected by the protein content with BCA protein assay kit.

The next series in a line: Water solubility. In kind it is physicochemical.
The nature of series [1]: Intra-articular pharmacokinetics and biodistribution in arthritic rats. Type of series: in vivo, Sprague–Dawley (SD) rats.
The nature of series [2]: Plasma pharmacokinetics in arthritic rats. The note with it: Sprague-Dawley, rat, iv, i.v. 10 mg/kg, mean ± SD. In kind it is in vivo. The protocol:
The pharmacokinetics and tissue distribution of free Tri, Tri-BLs and HA@Tri-BLs were studied in arthritic rats. Sprague–Dawley (SD) rats weighing 250 ± 20 g were used to establish the arthritic model. The rats were acclimatized for 20 days in a standard animal room and provided with food and water ad libitum. On the 21st day, the rats were received injection of Freund’s complete adjuvant (FCA) containing 10 mg/mL of Mycobacterium tuberculosis (Sigma-Aldrich) at the right foot (Jia and He, [2016]). […] The established arthritic rats were intravenously injected with Tri solution (dissolved in 75% ethanol solution and diluted with deionized water), Tri-BLs and HA@Tri-BLs via the jugular vein at a dose of 10 mg/kg. After administration, aliquots of blood (∼250 μL) were continuously sampled from the caudal vein into heparinized tubes at predetermined intervals.
Another three groups of arthritic rats were applied for biodistribution study to analyze the in vivo drug distribution of Tri solution, Tri-BLs and HA@Tri-BLs. At 0.5, 1, 2 and 4 h after injection, […] were sacrificed, and the heart, liver, spleen, lung, and kidney as well as the joint were excised or harvested. The drug in the blood and tissue samples was extracted twice with ethyl acetate from the prepared plasma and tissue homogenates (Zhang et al., [2014]). The extracted drug solution was then condensed and reconstituted in 50 μL of methanol for HPLC analysis with gossypol as an internal standard. The experimental protocols settled were reviewed and approved by the Animal Care and Use Committee of Chengdu University of Traditional Chinese Medicine.

As a reminder, the half-life is the time in which the quantity being followed falls by half. As usually defined, the clearance is the rate of elimination divided by the concentration. In general, MRT refers to the average time that molecules of a dose stay in the body.

For `CCN(c1nc(N)c(C(=O)NC(=N)N)nc1Cl)C(C)C` [EIPA, ethylisopropyl amiloride], in the series on RAW264.7 cells, the “Reduction in cellular uptake of HA@Tri-BLs” value (shortened to “Reduction in cellular uptake”) was “inhibited the cellular uptake of HA@Tri-BLs to different extents”.
In the case of `CC1=C(O)C(=O)C=C2C1=CC=C1[C@@]2(C)CC[C@@]2(C)[C@@H]3C[C@](C)(C(=O)O)CC[C@]3(C)CC[C@]12C` [Tri solution, Tripterine], the “Cellular uptake of Tri (intracellular Tri content)” value in the series on RAW264.7 cells (10 μg/mL, three incubation times) was “minimal uptake level”. In the series “Water solubility”, the Water-solubility entry was “extremely poor water-solubility”. For the same compound, the Cmax in series [1] (Sprague-Dawley, rat, iv, arthritic rats, i.v. 10 mg/kg, joint, mean ± SD, n = 6) stood at 652 ± 146 ng/mL; in series [2] (n = 6, read-out: Cmax (maximum plasma concentration)), 22600 ± 710 ng/mL. Also, the AUC(0-t) in series [1] (Sprague-Dawley, rat, iv, arthritic rats, i.v. 10 mg/kg, joint, mean ± SD, n = 6, read-out: AUC0−t in the joint) turned out to be 1470 ± 402 ng·h/mL. In addition, the AUC(0-inf) in series [1] (Sprague-Dawley, rat, iv, arthritic rats, i.v. 10 mg/kg, joint, read-out: AUC0–∞ pertinent to the joints) came to 1470 ng·h/mL; in series [2] (n = 6), 35900 ± 530 ng·h/mL. Moreover, in series [1] (arthritic rats, 0.5, 1, 2 and 4 h after injection), the “Biodistribution of Tri in organs” value was “high distribution in the organs of heart and kidney besides the plasma”. The compound further gave a half-life in series [2] (n = 6) of 6.15 ± 0.22 h. In addition, the clearance in series [2] (n = 6, read-out: CL (total drug clearance from plasma) (converted)) is 4.65 mL/min. Also, in series [2] (n = 6, read-out: MRT (mean residence time)), the MRT amounted to 7.07 ± 0.767 h. Further, the Vd in series [2] (n = 6, read-out: V (apparent volume of distribution)) turned out to be 1.97 ± 0.35 L.
On to `CN(C)CCCN1c2ccccc2Sc2ccc(Cl)cc21` [chlorpromazine, Chlorpromazine], for which the “Reduction in cellular uptake” value in the series on RAW264.7 cells is “inhibited the cellular uptake of HA@Tri-BLs to different extents”.
Consider `OC[C@H]1O[C@@](CO)(O[C@H]2O[C@H](CO)[C@@H](O)[C@H](O)[C@H]2O)[C@@H](O)[C@@H]1O` [hypertonic sucrose, sucrose], for which, in the series with RAW264.7 cells, the “Reduction in cellular uptake” value was “inhibited the cellular uptake of HA@Tri-BLs to different extents”.
Regarding hyaluronic acid [free HA], the “Reduction in cellular uptake” value with RAW264.7 cells is recorded as 47.5%.
